In experiment [1] the target is hNav1.1 (SCN1A) (Homo sapiens, UniProt P35498). The experiment in a line: Use-dependent inhibition of the CNS Nav1.1 sodium channel. To be noted: use-dependent block, 25 Hz, pulse 20, read-out: Nav1.1 UDB 25 Hz 10 uM. It is filed as cell-based. Summed up:
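HEK-293 cells stably expressing WT hNav1.1, automated whole-cell patch clamp at 23-25 °C with CsF-based internal and NaCl external solutions, pH 7.35. Compound applied twice, 200 s equilibration; block measured at pulse 20 of a 25 Hz train (0 mV, 20 ms) from −120 mV, as mean % inhibition versus compound-free.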

The target of experiment [2] is T1, hNaV1.2 (SCN2A) (Homo sapiens, UniProt Q99250).
T1 construct: expressed in transfected cells
T1 sequence (Q99250 whole entry): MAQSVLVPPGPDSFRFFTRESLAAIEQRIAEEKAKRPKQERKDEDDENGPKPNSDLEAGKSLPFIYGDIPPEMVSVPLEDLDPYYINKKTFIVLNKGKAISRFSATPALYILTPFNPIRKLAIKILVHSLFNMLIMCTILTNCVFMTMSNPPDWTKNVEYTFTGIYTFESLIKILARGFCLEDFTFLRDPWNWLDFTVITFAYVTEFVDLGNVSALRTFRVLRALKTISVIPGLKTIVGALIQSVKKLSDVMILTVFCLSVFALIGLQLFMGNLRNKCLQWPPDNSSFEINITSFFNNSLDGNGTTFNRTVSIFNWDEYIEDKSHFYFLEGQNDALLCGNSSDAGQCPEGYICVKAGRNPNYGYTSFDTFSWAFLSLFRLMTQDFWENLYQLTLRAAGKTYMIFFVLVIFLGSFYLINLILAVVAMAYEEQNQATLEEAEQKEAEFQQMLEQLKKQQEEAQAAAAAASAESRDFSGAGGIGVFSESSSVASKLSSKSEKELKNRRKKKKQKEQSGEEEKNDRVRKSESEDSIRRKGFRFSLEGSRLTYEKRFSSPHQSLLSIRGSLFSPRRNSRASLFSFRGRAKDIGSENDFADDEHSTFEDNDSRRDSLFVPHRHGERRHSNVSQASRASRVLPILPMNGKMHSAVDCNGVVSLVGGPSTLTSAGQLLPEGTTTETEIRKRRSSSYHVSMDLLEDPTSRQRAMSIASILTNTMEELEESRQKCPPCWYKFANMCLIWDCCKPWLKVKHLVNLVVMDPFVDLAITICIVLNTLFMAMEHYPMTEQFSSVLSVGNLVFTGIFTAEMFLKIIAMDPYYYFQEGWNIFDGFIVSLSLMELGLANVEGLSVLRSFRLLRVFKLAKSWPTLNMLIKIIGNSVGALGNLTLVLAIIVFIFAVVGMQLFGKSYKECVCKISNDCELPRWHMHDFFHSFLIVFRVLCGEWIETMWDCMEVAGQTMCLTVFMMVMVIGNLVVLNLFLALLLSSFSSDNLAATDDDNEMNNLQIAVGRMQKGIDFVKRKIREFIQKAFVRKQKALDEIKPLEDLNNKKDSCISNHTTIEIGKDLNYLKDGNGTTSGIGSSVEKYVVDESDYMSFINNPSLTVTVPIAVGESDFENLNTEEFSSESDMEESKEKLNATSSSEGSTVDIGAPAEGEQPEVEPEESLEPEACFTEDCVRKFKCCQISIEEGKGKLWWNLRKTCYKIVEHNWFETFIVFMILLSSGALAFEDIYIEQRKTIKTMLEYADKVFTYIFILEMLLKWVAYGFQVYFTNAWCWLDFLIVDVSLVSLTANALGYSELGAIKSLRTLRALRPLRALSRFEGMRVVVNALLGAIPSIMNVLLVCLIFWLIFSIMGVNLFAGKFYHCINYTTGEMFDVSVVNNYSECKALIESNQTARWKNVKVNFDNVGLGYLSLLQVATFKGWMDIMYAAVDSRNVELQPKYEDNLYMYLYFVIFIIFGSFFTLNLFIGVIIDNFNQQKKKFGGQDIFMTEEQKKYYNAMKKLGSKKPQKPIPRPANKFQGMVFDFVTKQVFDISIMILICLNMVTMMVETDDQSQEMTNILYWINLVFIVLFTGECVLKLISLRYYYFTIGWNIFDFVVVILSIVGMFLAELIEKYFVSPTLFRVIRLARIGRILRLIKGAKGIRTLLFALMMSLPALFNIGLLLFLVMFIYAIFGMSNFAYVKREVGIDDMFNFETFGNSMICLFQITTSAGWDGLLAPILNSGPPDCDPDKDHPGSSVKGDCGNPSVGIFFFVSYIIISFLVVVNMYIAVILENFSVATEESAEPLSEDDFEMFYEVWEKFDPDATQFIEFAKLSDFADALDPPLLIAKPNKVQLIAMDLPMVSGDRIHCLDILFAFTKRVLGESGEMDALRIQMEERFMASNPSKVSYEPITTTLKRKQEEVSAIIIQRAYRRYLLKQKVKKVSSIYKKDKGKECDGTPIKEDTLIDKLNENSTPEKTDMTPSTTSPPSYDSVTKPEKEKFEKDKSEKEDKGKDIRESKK
T1 sequence (Q07699 19-218 partner): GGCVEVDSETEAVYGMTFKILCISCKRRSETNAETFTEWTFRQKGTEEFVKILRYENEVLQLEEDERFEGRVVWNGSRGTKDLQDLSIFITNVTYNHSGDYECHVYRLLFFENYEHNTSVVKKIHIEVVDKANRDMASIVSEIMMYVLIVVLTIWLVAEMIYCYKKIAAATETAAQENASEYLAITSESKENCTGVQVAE
T1 sequence (O60939 30-215 partner): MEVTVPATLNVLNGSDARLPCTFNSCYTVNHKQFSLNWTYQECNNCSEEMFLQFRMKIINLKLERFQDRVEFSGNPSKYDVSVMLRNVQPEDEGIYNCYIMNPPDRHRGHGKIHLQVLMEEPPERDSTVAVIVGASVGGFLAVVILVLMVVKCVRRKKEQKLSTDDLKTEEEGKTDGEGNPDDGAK
The experiment in a line: Use-dependent inhibition of the CNS Nav1.2 sodium channel. The format is cell-based. To be noted: use-dependent block, 25 Hz, pulse 20, read-out: Nav1.2 UDB 25 Hz 10 uM. A digest of the protocol:
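Use-dependent block of human Nav1.2 was measured by automated whole-cell patch clamp (QPatch) in HEK-293 cells stably expressing hNaV1.2 with SCN1B and SCN2B. From a holding potential of −120 mV, a train of 20 pulses to 0 mV (20 ms, 25 Hz) was applied. Peak current at pulse 20 was normalized to the first pulse, and percent inhibition was calculated relative to compound-free recordings.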

`COc1cc(-c2ccc(C(F)(F)F)cc2F)cc2c(OCc3ncccn3)noc12` [Example 24, 5-(2-fluoro-4-(trifluoromethyl)phenyl)-7-methoxy-3-(pyrimidin-2-ylmethoxy)benzo[d]isoxazole]: the inhibition at 10 µM in experiment [1] and in experiment [2] was less than 5% in each case.

`CCn1cncc1COc1noc2ccc(-c3ccc(OC(F)(F)F)cc3)cc12` [Example 49, 3-((1-ethyl-1H-imidazol-5-yl)methoxy)-5-(4-(trifluoromethoxy)phenyl)benzo[d]isoxazole]: the inhibition at 10 µM stood at 56.4% in experiment [1] and 49.9% in experiment [2].

Take `FC(F)(F)COc1ccc(-c2ccc3onc(OCc4ncccn4)c3c2)cn1` [Example 21, 3-(pyrimidin-2-ylmethoxy)-5-(6-(2,2,2-trifluoroethoxy)pyridin-3-yl)benzo[d]isoxazole]: the inhibition at 10 µM in experiment [1] and in experiment [2] was less than 5% each time.

For the compound `Fc1cc(C(F)(F)F)ccc1-c1cc2c(OCc3ncccn3)noc2cc1F` [Example 33, 6-fluoro-5-(2-fluoro-4-(trifluoromethyl)phenyl)-3-(pyrimidin-2-ylmethoxy)benzo[d]isoxazole], the inhibition at 10 µM was less than 5% in experiment [1] and 5.5% in experiment [2].

In the case of `CC(Oc1noc2ccc(-c3ccc(OC(F)(F)F)cc3)cc12)c1ccccn1` (stereo not drawn) [Example 98, 3-(1-(pyridin-2-yl)ethoxy)-5-(4-(trifluoromethoxy)phenyl)benzo[d]isoxazole], the inhibition at 10 µM was 15.9% in experiment [1] and less than 5% in experiment [2].

On to `CC(C)n1ccnc1COc1noc2ccc(-c3ccc(OC(F)(F)F)cc3)cc12` [Example 48, 3-((1-isopropyl-1H-imidazol-2-yl)methoxy)-5-(4-(trifluoromethoxy)phenyl)benzo[d]isoxazole], for which the inhibition at 10 µM in experiment [1] was 52.8%; in experiment [2], 54.2%.

As to `O=C1CCCN1CCOc1noc2c(F)cc(-c3ccc(OC(F)(F)F)cc3)cc12` [Example 80, 1-(2-((7-fluoro-5-(4-(trifluoromethoxy)phenyl)benzo[d]isoxazol-3-yl)oxy)ethyl)pyrrolidin-2-one], the inhibition at 10 µM was determined as 19.8% in experiment [1] and 17.5% in experiment [2].

Turning to `COc1ccnc(COc2noc3ccc(-c4ccc(OC(F)(F)F)cc4)cc23)c1` [Example 81, 3-((4-methoxypyridin-2-yl)methoxy)-5-(4-(trifluoromethoxy)phenyl)benzo[d]isoxazole], the inhibition at 10 µM in experiment [1] is less than 5%; in experiment [2] it was 21.8%.

As to `Cc1cc(OC(F)(F)F)ccc1-c1cc2c(OCc3ncccn3)noc2cc1C` [Example 29, 6-methyl-5-(2-methyl-4-(trifluoromethoxy)phenyl)-3-(pyrimidin-2-ylmethoxy)benzo[d]isoxazole], the inhibition at 10 µM in experiment [1] and in experiment [2] was less than 5% in each case.

On to `FC(F)(F)Oc1ccc(-c2ccc3onc(OCc4cn[nH]c4)c3c2)cc1` [Example 45, 3-((1H-pyrazol-4-yl)methoxy)-5-(4-(trifluoromethoxy)phenyl)benzo[d]isoxazole], for which the inhibition at 10 µM in experiment [1] was 63.8%; in experiment [2], 42.8%.

As to `Cc1nc(C)n(C(C)COc2noc3ccc(-c4ccc(OC(F)(F)F)cc4)cc23)n1` (stereo not drawn) [Example 79, 3-(2-(3,5-dimethyl-1H-1,2,4-triazol-1-yl)propoxy)-5-(4-(trifluoromethoxy)phenyl)benzo[d]isoxazole], the inhibition at 10 µM in experiment [1] came to 36.8%; in experiment [2] it was 34%.

Consider `CC(COc1noc2ccc(-c3ccc(OC(F)(F)F)cc3)cc12)n1cncn1` (stereo not drawn) [Example 77, 3-(2-(1H-1,2,4-triazol-1-yl)propoxy)-5-(4-(trifluoromethoxy)phenyl)benzo[d]isoxazole], for which the inhibition at 10 µM in experiment [1] is 49.2%; in experiment [2] it was 31.8%.

In the case of `OCC1(COc2noc3ccc(-c4ccc(OC(F)(F)F)cc4)cc23)COC1` [Example 97, (3-(((5-(4-(trifluoromethoxy)phenyl)benzo[d]isoxazol-3-yl)oxy)methyl)oxetan-3-yl)methanol], the inhibition at 10 µM in experiment [1] came out at 46.3%; in experiment [2], 34.3%.

For the compound `FC1(F)Oc2ccc(-c3ccc4onc(OCc5ncccn5)c4c3)cc2O1` [Example 30, 5-(2,2-difluorobenzo[d][1,3]dioxol-5-yl)-3-(pyrimidin-2-ylmethoxy)benzo[d]isoxazole], the inhibition at 10 µM in experiment [1] and in experiment [2] was less than 5% throughout.

As for `Cn1cncc1COc1noc2ccc(-c3ccc(OC(F)(F)F)cc3)cc12` [Example 50, 3-((1-methyl-1H-imidazol-5-yl)methoxy)-5-(4-(trifluoromethoxy)phenyl)benzo[d]isoxazole], the results for the inhibition at 10 µM in experiment [1] and in experiment [2] were 49.2% and 27.3%, respectively.

In the case of `Fc1cc2onc(OCc3ncccn3)c2cc1-c1ccc2c(c1)OC(F)(F)O2` [Example 35, 5-(2,2-difluorobenzo[d][1,3]dioxol-5-yl)-6-fluoro-3-(pyrimidin-2-ylmethoxy)benzo[d]isoxazole], the inhibition at 10 µM in experiment [1] and in experiment [2] was less than 5% in each case.

With `FC(F)(F)Oc1ccc(-c2ccc3onc(OCCn4cnnc4)c3c2)cc1` [Example 63, 3-(2-(4H-1,2,4-triazol-4-yl)ethoxy)-5-(4-(trifluoromethoxy)phenyl)benzo[d]isoxazole], the inhibition at 10 µM was determined as 77.6% in experiment [1] and 68% in experiment [2].

Regarding `O=C1CC[C@H](COc2noc3ccc(-c4ccc(OC(F)(F)F)cc4)cc23)N1` [Example 61, (R)-5-(((5-(4-(trifluoromethoxy)phenyl)benzo[d]isoxazol-3-yl)oxy)methyl)pyrrolidin-2-one], the figures for the inhibition at 10 µM in experiment [1] and in experiment [2] were 28.7% and 31%, respectively.

In the case of `Cc1cc(-c2ccc(OC(F)(F)F)cc2)cc2c(OCCn3cncn3)noc12` [Example 89, 3-(2-(1H-1,2,4-triazol-1-yl)ethoxy)-7-methyl-5-(4-(trifluoromethoxy)phenyl)benzo[d]isoxazole], the inhibition at 10 µM in experiment [1] was determined as 16.1%; in experiment [2], 52%.

`FC(F)(F)Oc1ccc(-c2ccc3onc(OCc4cn5ccccc5n4)c3c2)cc1` [Example 51, 3-(imidazo[1,2-a]pyridin-2-ylmethoxy)-5-(4-(trifluoromethoxy)phenyl)benzo[d]isoxazole]: the values for the inhibition at 10 µM in experiment [1] and in experiment [2] were 30% and 15.7%, respectively.

With `COc1cc(-c2ccc(OC(F)(F)F)c(C)c2)cc2c(OCc3ncccn3)noc12` [Example 23, 7-methoxy-5-(3-methyl-4-(trifluoromethoxy)phenyl)-3-(pyrimidin-2-ylmethoxy)benzo[d]isoxazole], the inhibition at 10 µM is less than 5% in experiment [1] and 9.9% in experiment [2].

`FC(F)(F)Oc1ccc(-c2ccc3onc(OCCN4CCOCC4)c3c2)cc1` [Example 78, 3-(2-morpholinoethoxy)-5-(4-(trifluoromethoxy)phenyl)benzo[d]isoxazole]: the inhibition at 10 µM was 39.9% in experiment [1] and 32.8% in experiment [2].

For `Cc1cc(-c2cc(C)c3onc(OCc4ncccn4)c3c2)ccc1OC(F)(F)F` [Example 18, 7-methyl-5-(3-methyl-4-(trifluoromethoxy)phenyl)-3-(pyrimidin-2-ylmethoxy)benzo[d]isoxazole], the inhibition at 10 µM in experiment [1] and in experiment [2] was less than 5% each time.

As for `Cn1cc(COc2noc3ccc(-c4ccc(OC(F)(F)F)cc4)cc23)nn1` [Example 44], the inhibition at 10 µM in experiment [1] stood at 21.1%; in experiment [2], 25.4%.

The record behind these values is US9416115B2, “Fused heterocyclic compounds as ion channel modulators” (Gilead Sciences, Inc., priority 2013, dated 2016).
